The test system of assay [1] is HSV- I. The experiment in a line: HSV antiviral (ELISA) assay. The class given is cell-based. The settings on record: read-out: IC50 (ug/ml) HSV. An outline of the steps: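 Vero cells in DMEM with 2% FBS treated with compound 30 min before HSV-1 infection (MOI 0.006), then incubated ~24 h at 37°C. Viral replication measured by ELISA against glycoprotein D with β-galactosidase-linked secondary and fluorogenic substrate (ex 365/em 450 nm); IC50 relative to untreated fluorescence.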

Assay [2] concerns VZV strain Ellen. The experiment in a line: VZV antiviral (ELISA) assay. The settings on record: Human alphaherpesvirus 3, HFF; for inhibition at 10 µg/mL: read-out: % inhibition 10 ug/ml VZV. The format is cell-based. Put shortly: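 HFF cells infected with VZV Ellen at multiplicity below 0.1 overnight, then mixed infected/uninfected cells seeded with compound in DMEM/2% FBS and incubated three days at 37°C, 5% CO2.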
On the technique in general: ELISA stands for enzyme-linked immunosorbent assay.

Assay [3] has as its system HCMV recombinant mutant virus whose genome contains the prokaryotic beta-glucuronidase gene. The experiment in a line: microbe, parasite or virus in culture. The format is cell-based, human cytomegalovirus. The settings on record: Human betaherpesvirus 5, Fibroblast, read-out: IC50 ug/ml HCMV, HCMV, human foreskin fibroblasts. An outline of the steps: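 Human foreskin fibroblasts infected with HCMV recombinant carrying beta-glucuronidase under a viral promoter (e.g. RV145) in presence of compound. At 96 h post-infection, lysates assayed for beta-glucuronidase by colorimetric or fluorogenic substrate as replication readout; IC50 estimated from varying compound amounts.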

Converted amounts (≈) assume the structure as drawn. Like-named read-outs stand apart in the source and are kept apart here.

`COc1cc(OC)c(NC(=S)Nc2ccc(NC(=O)c3cccc(C(=O)O)c3)cc2)cc1Cl` [Example 209, N-{4-[3-(5-Chloro-2,4-dimethoxy-phenyl)-thioureido]-phenyl}-isophthalamic acid]: the IC50 in assay [1] (HSV- I, Vero cells, ELISA) was > 50 µg/mL; in assay [2] (read-out: IC50 (ug/ml) VZV), > 10 µg/mL; in assay [3] it was > 50 µg/mL. Besides, the inhibition at 10 µg/mL in assay [2] was determined as 22%.
`COc1cc(OC)c(NC(=S)Nc2ccc(NC(=O)c3cccc(OCc4ccccc4)c3)cc2)cc1Cl` [Example 210, 3-Benzyloxy-N-{4-[3-(5-chloro-2,4-dimethoxy-phenyl)-thioureido]-phenyl}-benzamide]: the IC50 is 5 µg/mL (≈ 9.12 µM) in assay [1] (HSV- I, Vero cells, ELISA); > 10 µg/mL in assay [2] (read-out: IC50 (ug/ml) VZV); > 10 µg/mL in assay [3]. Further, the inhibition at 10 µg/mL in assay [2] amounted to 14%.
With `CCCCOc1cccc(C(=O)Nc2ccc(NC(=S)Nc3cc(Cl)c(OC)cc3OC)cc2)c1` [Example 219, 3-Butoxy-N-{4-[3-(5-chloro-2,4-dimethoxy-phenyl)-thioureido]-phenyl}-benzamide], the IC50 in assay [1] (HSV- I, Vero cells, ELISA) was 2.5 µg/mL (≈ 4.86 µM); in assay [2] (read-out: IC50 (ug/ml) VZV) it was > 10 µg/mL; in assay [3], > 10 µg/mL. Moreover, in assay [2], the inhibition at 10 µg/mL came out at 30%.
For the molecule `COc1cc(OC)c(NC(=S)Nc2ccc(NC(=O)c3ccccc3[S+](C)[O-])cc2)cc1Cl` (centres unmarked) [Example 220, N-{4-[3-(5-Chloro-2,4-dimethoxy-phenyl)-thioureido]-phenyl}-2-methane-sulfinyl-benzamide], the IC50 in assay [1] (Vero) is > 10 µg/mL; in assay [2] (read-out: IC50 (ug/ml) VZV, VZV strain Ellen, HFF cells, ELISA), > 10 µg/mL; in assay [3] it was > 10 µg/mL. In addition, in assay [2], the inhibition at 10 µg/mL turned out to be 35%.
For `CCOC(=O)COc1cccc(C(=O)Nc2ccc(NC(=S)Nc3cc(Cl)c(OC)cc3OC)cc2)c1` [Example 221, (3-{4-[3-(5-Chloro-2,4-dimethoxy-phenyl)-thioureido]-phenylcarbamoyl}-phenoxy)-acetic acid ethyl ester], the IC50 in assay [1] (HSV- I, Vero cells, ELISA) is > 10 µg/mL; in assay [2] (read-out: IC50 (ug/ml) VZV), > 10 µg/mL; in assay [3] it was > 10 µg/mL. In addition, the inhibition at 10 µg/mL in assay [2] stood at 17%.
With `COc1cc(OC)c(NC(=S)Nc2ccc(NC(=O)c3cccc(OCC(=O)O)c3)cc2)cc1Cl` [Example 222, (3-{4-[3-(5-Chloro-2,4-dimethoxy-phenyl)-thioureido]-phenylcarbamoyl}-phenoxy)-acetic acid], the IC50 in assay [1] (HSV- I, Vero cells, ELISA) was > 50 µg/mL; in assay [2] (read-out: IC50 (ug/ml) VZV), > 10 µg/mL; in assay [3], > 50 µg/mL. In addition, the inhibition at 10 µg/mL in assay [2] came out at 17%.
With `Cc1ccc(NC(=S)Nc2ccc(NC(=O)c3ccccc3F)cc2)cc1Cl` [Example 231, N-{4-[3-(3-Chloro-4-methyl-phenyl)-thioureido]-phenyl}-2-fluoro-benzamide], the IC50 in assay [1] (HSV- I, Vero cells, ELISA) is 0.5 µg/mL (≈ 1.21 µM); in assay [2] (read-out: IC50 (ug/ml) VZV), > 10 µg/mL; in assay [3] it was > 10 µg/mL. Further, the inhibition at 10 µg/mL in assay [2] stood at 11%.
Regarding `COc1cccc(C(=O)Nc2ccc(NC(=S)Nc3ccc(C)c(Cl)c3)cc2)c1` [Example 232, N-{4-[3-(3-Chloro-4-methyl-phenyl)-thioureido]-phenyl}-3-methoxy-benzamide], the IC50 in assay [1] (HSV- I, Vero cells, ELISA) was 1 µg/mL (≈ 2.35 µM); in assay [2] (read-out: IC50 (ug/ml) VZV), > 10 µg/mL; in assay [3], > 10 µg/mL. For the same molecule, the inhibition at 10 µg/mL in assay [2] was determined as 21%.
Consider `Cc1ccc(NC(=S)Nc2ccc(NC(=O)c3ccccc3C)cc2)cc1Cl` [Example 234, N-{4-[3-(3-Chloro-4-methyl-phenyl)-thioureido]-phenyl}-2-methyl-benzamide], for which the IC50 in assay [1] (HSV- I, Vero cells, ELISA) is 0.2 µg/mL (≈ 0.488 µM); in assay [2] (read-out: IC50 (ug/ml) VZV), > 10 µg/mL; in assay [3] it was 1 µg/mL (≈ 2.44 µM). Moreover, the inhibition at 10 µg/mL in assay [2] is 68%.
For `Cc1ccc(NC(=S)Nc2ccc(NC(=O)c3c(F)cccc3F)cc2)cc1Cl` [Example 235, N-{4-[3-(3-Chloro-4-methyl-phenyl)-thioureido]-phenyl}-2,6-difluoro-benzamide] the same measures were 0.2 µg/mL (≈ 0.463 µM), > 10 µg/mL, > 10 µg/mL and 50%.
Take `CN(c1ccc(NC(=S)Nc2ccc(NC(=O)c3ccccc3F)cc2)cc1Cl)C1CCCCC1` [Example 238, N-(4-{3-[3-Chloro-4-(cyclohexyl-methyl-amino)-phenyl]-thioureido}-phenyl)-2-fluoro-benzamide]: the IC50 in assay [1] (HSV- I, Vero cells, ELISA) is > 10 µg/mL; in assay [2] (read-out: IC50 (ug/ml) VZV), > 10 µg/mL; in assay [3] it was > 10 µg/mL. Besides, the inhibition at 10 µg/mL in assay [2] was 38%.
For `O=C(Nc1ccc(NC(=S)Nc2ccc(Cl)c(C(F)(F)F)c2)cc1)c1ccccc1F` [Example 244, N-{4-[3-(4-Chloro-3-trifluoromethyl-phenyl)-thioureido]-phenyl}-2-fluoro-benzamide], the IC50 in assay [1] (HSV- I, Vero cells, ELISA) was > 10 µg/mL; in assay [2] (read-out: IC50 (ug/ml) VZV), > 10 µg/mL; in assay [3], > 10 µg/mL. Further, the inhibition at 10 µg/mL in assay [2] is 18%.
For `Cc1ccccc1C(=O)Nc1ccc(NC(=S)Nc2ccc(N(C)C3CCCCC3)c(Cl)c2)cc1` [Example 247, N-(4-{3-[3-Chloro-4-(cyclohexyl-methyl-amino)-phenyl]-thioureido}-phenyl)-2-methyl-benzamide], the IC50 in assay [1] (HSV- I, Vero cells, ELISA) was > 10 µg/mL; in assay [2] (read-out: IC50 (ug/ml) VZV), 5 µg/mL (≈ 9.86 µM); in assay [3], > 10 µg/mL. For the same molecule, in assay [2], the inhibition at 10 µg/mL turned out to be 74%.
Consider `CN(c1ccc(NC(=S)Nc2ccc(NC(=O)c3c(F)cccc3F)cc2)cc1Cl)C1CCCCC1` [Example 248, N-(4-{3-[3-Chloro-4-(cyclohexyl-methyl-amino)-phenyl]-thioureido}-phenyl)-2,6-difluoro-benzamide], for which the IC50 was > 10 µg/mL in assay [1] (HSV- I, Vero cells, ELISA); 2 µg/mL (≈ 3.78 µM) in assay [2] (read-out: IC50 (ug/ml) VZV); 2 µg/mL (≈ 3.78 µM) in assay [3]. Besides, in assay [2], the inhibition at 10 µg/mL was 96%.
As to `COc1cccc(C(=O)Nc2ccc(NC(=S)Nc3ccc(N(C)C4CCCCC4)c(Cl)c3)cc2)c1` [Example 250, N-(4-{3-[3-Chloro-4-(cyclohexyl-methyl-amino)-phenyl]-thioureido}-phenyl)-3-methoxy-benzamide], the IC50 in assay [1] (HSV- I, Vero cells, ELISA) is > 10 µg/mL; in assay [2] (read-out: IC50 (ug/ml) VZV) it was > 10 µg/mL; in assay [3], > 10 µg/mL. For the same molecule, in assay [2], the inhibition at 10 µg/mL stood at 42%.
In the case of `COc1cc(OC)c(NC(=S)Nc2ccc(NC(=O)c3cccc(OC(C)=O)c3)cc2)cc1Cl` [Example 253, Acetic acid 3-{4-[3-(5-chloro-2,4-dimethoxy-phenyl)-thioureido]-phenyl-carbamoyl}-phenyl ester], the IC50 in assay [1] (HSV- I, Vero cells, ELISA) worked out at 1.2 µg/mL (≈ 2.4 µM); in assay [2] (read-out: IC50 (ug/ml) VZV) it was 6 µg/mL (≈ 12 µM); in assay [3] it was 8 µg/mL (≈ 16 µM). Besides, the inhibition at 10 µg/mL in assay [2] amounted to 100%.
For `COc1cc(OC)c(NC(=S)Nc2ccc(NC(=O)c3cccc(O)c3)cc2)cc1Cl` [Example 254, N-{4-[3-(5-Chloro-2,4-dimethoxy-phenyl)-thioureido]-phenyl}-3-hydroxy-benzamide] the same measures were 0.9 µg/mL (≈ 1.97 µM), 4 µg/mL (≈ 8.73 µM), 4 µg/mL (≈ 8.73 µM) and 110%.
For `COc1cc(OC)c(NC(=S)Nc2ccc(NC(=O)c3cccc4c3OCO4)cc2)cc1Cl` [Example 255, Benzo[1,3]dioxole-4-carboxylic acid {4-[3-(5-chloro-2,4-dimethoxy-phenyl)-thioureido]-phenyl}-amide], in that order: 1.2 µg/mL (≈ 2.47 µM), > 10 µg/mL, > 10 µg/mL and 0%.
For `COc1cc(OC)c(NC(=S)Nc2ccc(NC(=O)c3cccc(OC(F)(F)F)c3)cc2)cc1Cl` [Example 256, N-{4-[3-(5-Chloro-2,4-dimethoxy-phenyl)-thioureido]-phenyl}-3-trifluoro-methoxy-benzamide] the same measures were 2 µg/mL (≈ 3.8 µM), > 10 µg/mL, 9 µg/mL (≈ 17.1 µM) and 15%.
As for `COc1cc(OC)c(NC(=S)Nc2ccc(NC(=O)c3cccc(OCCN(C)C)c3)cc2)cc1Cl` [Example 257, N-{4-[3-(5-Chloro-2,4-dimethoxy-phenyl)-thioureido]-phenyl}-3-(2-dimethylamino-ethoxy)-benzamide], the IC50 in assay [1] (HSV- I, Vero cells, ELISA) worked out at 2.5 µg/mL (≈ 4.73 µM); in assay [2] (read-out: IC50 (ug/ml) VZV), 2.5 µg/mL (≈ 4.73 µM); in assay [3], 7 µg/mL (≈ 13.2 µM). In assay [2], the inhibition at 10 µg/mL is 105%.
For the molecule `COc1cc(OC)c(NC(=S)Nc2ccc(NC(=O)c3cccc(OCCN4CCOCC4)c3)cc2)cc1Cl` [Example 258, N-{4-[3-(5-Chloro-2,4-dimethoxy-phenyl)-thioureido]-phenyl}-3-(2-morpholin-4-yl-ethoxy)-benzamide], the IC50 was 1.5 µg/mL (≈ 2.63 µM) in assay [1] (HSV- I, Vero cells, ELISA); 1.5 µg/mL (≈ 2.63 µM) in assay [2] (read-out: IC50 (ug/ml) VZV); 5 µg/mL (≈ 8.76 µM) in assay [3]. The inhibition at 10 µg/mL in assay [2] came out at 92%.
Turning to `COc1cc(OC)c(NC(=S)Nc2ccc(NC(=O)c3ccccc3F)c(Cl)c2)cc1Cl` [Example 278, N-{2-Chloro-4-[3-(5-chloro-2,4-dimethoxy-phenyl)-thioureido]-phenyl}-2-fluoro-benzamide], the IC50 in assay [1] (HSV- I, Vero cells, ELISA) is > 10 µg/mL; in assay [2] (read-out: IC50 (ug/ml) VZV) it was > 10 µg/mL; in assay [3], > 10 µg/mL. In addition, the inhibition at 10 µg/mL in assay [2] turned out to be 15%.
On to `COc1cc(OC)c(NC(=S)Nc2ccc(NC(=O)c3ccccc3F)c(C(=O)c3ccccc3)c2)cc1Cl` [Example 293, N-{2-Benzoyl-4-[3-(5-chloro-2,4-dimethoxy-phenyl)-thioureido]-phenyl}-2-fluoro-benzamide], for which the IC50 in assay [1] (HSV- I, Vero cells, ELISA) was > 50 µg/mL; in assay [2] (read-out: IC50 (ug/ml) VZV) it was > 10 µg/mL; in assay [3] it was > 10 µg/mL. In assay [2], the inhibition at 10 µg/mL was 2%.

(Values after patent EP1137645B1, “ALPHA-METHYLBENZYL-CONTAINING THIOUREA INHIBITORS OF HERPES VIRUSES CONTAINING A […] GROUP” (Wyeth, priority 1998, dated 2000).)
